Laboratory results taken from BindingDB's records for doi:10.3109/14756366.2012.692086 (Giresun University, 2013).

Target: T1, Neutrophil elastase (Homo sapiens, UniProt P08246)
T1 sequence (P08246 whole entry): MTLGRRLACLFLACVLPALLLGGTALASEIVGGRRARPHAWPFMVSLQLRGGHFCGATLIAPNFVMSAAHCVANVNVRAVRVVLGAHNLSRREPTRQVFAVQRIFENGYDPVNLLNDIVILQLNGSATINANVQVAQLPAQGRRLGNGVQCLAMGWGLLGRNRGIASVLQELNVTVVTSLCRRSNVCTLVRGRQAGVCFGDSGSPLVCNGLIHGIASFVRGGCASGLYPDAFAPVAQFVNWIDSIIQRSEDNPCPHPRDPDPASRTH
Experiment: Elastase Activity Assay
Text: The elastase inhibitor activity was examined using N-succinyl-Ala-Ala-Ala-pnitroanilide (STANA) as the substrate and by the measuring of the release of p-nitroaniline at 410 nm [James et al., Biochemistry, 35:9090-9096].

| IC50 | SMILES |
| --- | --- |
| 416 nM | C[C@H]1[C@H](C)CC[C@]2(C(=O)O)CC[C@]3(C)C(=CC[C@@H]4[C@@]5(C)CC[C@H](O)C(C)(C)[C@@H]5CC[C@]43C)[C@H]12 [3beta-hydroxyurs-12-en-28-oic acid] |
| 125 nM | CN(CCN(Cc1cc(=O)oc2c(O)c(O)ccc12)c1ccccc1)c1ccccc1 [4,4'-(Ethane-1,2-diylbis(phenylazanediyl))bis(methylene)bis(6,7-dihydroxy-2H-chromen-2-one) (7)] |
| 127 nM | CN(CCN(Cc1cc(=O)oc2cc(O)c(O)cc12)c1ccccc1)c1ccccc1 [4,4'-(Ethane-1,2-diylbis(phenylazanediyl))bis(methylene)bis(7,8-dihydroxy-2H-chromen-2-one) (3)] |
